Test results from PubChem BioAssay AID1259408 (Genetic Toxicology Data Bank (GENE-TOX), 2018).
Activity calls are given as the source filed them. No rule for the calls is given here.

System: GENE-TOX genotoxicity assays, various organisms and cells
Assay: GENE-TOX mutagenicity studies
[1] = Species/Cell Type: Fischer rat embryo (RLV/1706) cells, Assay Type: Cell transformation, viral enhanced, Assay Code: CTR-, Evaluation Type: Evaluation A (Pre-1980)
[2] = Species/Cell Type: Salmonella typhimurium (one or more of the five standard strains: TA98, TA100, TA1535, TA1537, and TA1538), Assay Type: Histidine reverse gene mutation, Ames assay, Assay Code: SAL+*, Activation: With metabolic activation, Evaluation Type: Evaluation A (Pre-1980)

NC=O
mutagenic call [1]: inactive; negative
mutagenic call (Species/Cell Type: Hordeum vulgare (barley), Assay Type: Chromosome aberrations, Assay Code: HOC+, Evaluation Type: Evaluation A (Pre-1980)): active; positive

COc1ccc2ccc(=O)oc2c1
mutagenic call (Species/Cell Type: Allium cepa, Assay Type: Chromosome aberrations, Assay Code: ALC+D, Dose Response: With dose response, Evaluation Type: Evaluation A (Pre-1980)): active; positive

CCCCCc1cc(O)c2c(c1)OC(C)(C)c1ccc(C)cc1-2
mutagenic call [1]: inactive; negative
mutagenic call (Species/Cell Type: Human lymphocytes, Assay Type: Sister-chromatid exchange (SCE) in vivo, Assay Code: SCY+, Evaluation Type: Evaluation B (Post-1980)): active; positive
mutagenic call (Species/Cell Type: Mammalian polychromatic erythrocytes, Assay Type: Micronucleus test, chromosome aberrations, Assay Code: MNT+, Evaluation Type: Evaluation B (Post-1980)): active; positive
mutagenic call (Species/Cell Type: Mouse, Sex: Male, Assay Type: Sperm morphology, Assay Code: SPI+, Evaluation Type: Evaluation A (Pre-1980)): active; positive

O=C1CCCc2c1ccc1c2ccc2ccccc21
mutagenic call [2]: active; positive

OC/C=C/c1ccc2c(c1)OCO2
mutagenic call (Species/Cell Type: Salmonella typhimurium (one or more of the five standard strains: TA98, TA100, TA1535, TA1537, and TA1538), Assay Type: Histidine reverse gene mutation, Ames assay, Assay Code: SALT, Evaluation Type: Evaluation A (Pre-1980)): no conclusion

O=NN1CCC(=O)NC1=O
mutagenic call (Species/Cell Type: Salmonella typhimurium (one or more of the five standard strains: TA98, TA100, TA1535, TA1537, and TA1538), Assay Type: Histidine reverse gene mutation, Ames assay, Assay Code: SAL+, Evaluation Type: Evaluation A (Pre-1980)): active; positive

c1ccc2c(c1)ccc1cc3c(ccc4ccccc43)cc12
mutagenic call (Species/Cell Type: Chinese hamster lung (V79) cells, Assay Type: Forward gene mutation at the HPRT or ouabain locus, Assay Code: V79+*, Activation: With metabolic activation, Evaluation Type: Evaluation A (Pre-1980)): active; positive
mutagenic call (Species/Cell Type: Drosophila melanogaster, Assay Type: Sex-linked recessive lethal gene mutation, Assay Code: SRL+, Evaluation Type: Evaluation A (Pre-1980)): active; positive
mutagenic call (Species/Cell Type: Fischer rat embryo (RLV/1706) cells, Assay Type: Cell transformation, viral enhanced, Assay Code: CTR+, Evaluation Type: Evaluation A (Pre-1980)): active; positive
mutagenic call (Species/Cell Type: Fischer rat embryo (SA7/RE) cells, Assay Type: Cell transformation, viral enhanced, Assay Code: CTA+, Evaluation Type: Evaluation A (Pre-1980)): active; positive
mutagenic call (Species/Cell Type: Human diploid fibroblasts, Assay Type: Unscheduled DNA synthesis (UDS) in vitro, DNA effects, Assay Code: UDHT, Evaluation Type: Evaluation A (Pre-1980)): no conclusion
mutagenic call (Species/Cell Type: Mouse (BALB/c-3T3) cells, Assay Type: Cell transformation, Assay Code: CTB+, Evaluation Type: Evaluation A (Pre-1980)): active; positive
mutagenic call (Species/Cell Type: Mouse (C3H/10T1/2) cells, Assay Type: Cell transformation, Assay Code: CTH+, Evaluation Type: Evaluation A (Pre-1980)): active; positive
mutagenic call (Species/Cell Type: Mouse embryo (AKR/ME) cells, Assay Type: Cell transformation, Assay Code: CTK+, Evaluation Type: Evaluation A (Pre-1980)): active; positive
mutagenic call (Species/Cell Type: Mouse prostate cells, Assay Type: Cell transformation, Assay Code: CTMT, Evaluation Type: Evaluation A (Pre-1980)): no conclusion
mutagenic call (Species/Cell Type: Neurospora crassa, Assay Type: Forward gene mutation, Assay Code: NEF+, Evaluation Type: Evaluation A (Pre-1980)): active; positive
call (Species/Cell Type: Nonhuman, Assay Type: In vivo carcinogenicity studies, Assay Code: CCG+, Evaluation Type: Evaluation A (Pre-1980)): active; positive
mutagenic call (Species/Cell Type: Nonhuman, Assay Type: Sister-chromatid exchange (SCE) in vivo, Assay Code: SC3T, Evaluation Type: Evaluation A (Pre-1980)): no conclusion
mutagenic call [2]: active; positive
mutagenic call (Species/Cell Type: Syrian hamster embryo (SA7/SHE) cells, Assay Type: Cell transformation, viral enhanced, Assay Code: CT7+, Evaluation Type: Evaluation A (Pre-1980)): active; positive
mutagenic call (Species/Cell Type: Syrian hamster embryo (SHE) cells, Assay Type: Cell transformation, clonal assay, Assay Code: CTC+D, Dose Response: With dose response, Evaluation Type: Evaluation A (Pre-1980)): active; positive
mutagenic call (Species/Cell Type: Syrian hamster embryo (SHE) cells, Assay Type: Cell transformation, focus assay, Assay Code: CTF+, Evaluation Type: Evaluation A (Pre-1980)): active; positive

[Cl][La]([Cl])[Cl]
mutagenic call (Species/Cell Type: Bacillus subtilis (H17 vs M45), Assay Type: Rec-assay, spot test, DNA effects (bacterial DNA repair), Assay Code: REW-, Evaluation Type: Evaluation A (Pre-1980)): inactive; negative
